From patent US11945875B2, “Motile sperm domain containing protein 2 and cancer” (ImmuneWalk Therapeutics, Inc., priority 2015, dated 2024)
“Also recorded” adds a separate entry of the source.

Assays:
MOSPD2 [1] = molecular target: T1, MOSPD2 (Homo sapiens, UniProt Q8NHP6); experiment: Mass-Spectrometry differential display of proteins precipitated from human monocytes; format: binding; set-up: endogenous in cells; host or cells: human CD14 monocytes; settings: labeled compound
T1 sequence (Q8NHP6 1-518): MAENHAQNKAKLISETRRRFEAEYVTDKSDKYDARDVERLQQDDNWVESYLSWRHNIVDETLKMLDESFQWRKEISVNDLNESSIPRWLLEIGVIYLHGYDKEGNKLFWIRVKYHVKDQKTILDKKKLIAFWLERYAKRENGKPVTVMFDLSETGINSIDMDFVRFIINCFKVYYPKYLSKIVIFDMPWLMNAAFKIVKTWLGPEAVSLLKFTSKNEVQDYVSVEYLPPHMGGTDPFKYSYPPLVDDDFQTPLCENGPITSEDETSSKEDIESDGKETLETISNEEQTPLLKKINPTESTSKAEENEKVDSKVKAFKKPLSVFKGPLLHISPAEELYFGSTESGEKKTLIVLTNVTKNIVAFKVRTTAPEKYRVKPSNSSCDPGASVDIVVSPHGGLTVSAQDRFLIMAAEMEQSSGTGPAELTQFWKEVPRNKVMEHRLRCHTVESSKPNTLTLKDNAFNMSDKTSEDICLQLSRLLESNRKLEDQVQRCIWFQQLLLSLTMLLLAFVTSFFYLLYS
Text: Using labeled VB-201 and VB-221, proteins from human monocytes were precipitated and differential display by Mass-Spectrometry, was studied.

MOSPD2 [2] = molecular target: T1, MOSPD2; experiment: Precipitation of proteins from human CD14 monocyte lysate with labelled VB-201 or VB-221, Western blot; format: binding; set-up: endogenous in cells; host or cells: human CD14 monocytes; settings: ovalbumin-biotin labelled compound (OB201/OB221)
Protocol: (§1) VB-201 and VB-221 were labeled with biotin as follows. VB-201, VB-221 and ovalbumin (OVA, Sigma, Israel) were dissolved in 0.1 M MES buffer (Thermo Scientific, Rockford, IL) and conjugated using EDC [1-ethyl-3-(dimethylaminopropyl) carbodiimide HCL] (Thermo Scientific) at a molar ratio of 100 (VB-201/VB-221):1 (OVA):240 (EDC) for 2-3 hr at room temperature. After which, samples were transferred to 10 kDa dialysis cassettes (Thermo Scientific) and dialyzed overnight against PBS. The ovalbumin bound VB-201 (OB201) and VB-221 (OB221) were then conjugated with amine-PEG2-biotin (in 0.1 M MES buffer) using EDC at a molar ratio of 1 (OB201/OB221):100 (amine-PEG2-biotin):700 (EDC). The reaction was allowed to proceed for 2-3 hours at room temperature after which samples were again transferred to a 10 kDa dialysis cassette and dialyzed overnight against PBS.
(§2) Cells were lysed using a 1% NP-40 lysis buffer containing 1:100 protease and phosphatase inhibitors, followed by 20 min incubation on ice and 15 min centrifugation at maximum speed. Samples were incubated overnight at 4° C. with solvent, OB201 or OB221 in a rotator. Streptavidin agarose beads (Sigma, Israel) were added for 2 hours. Protein elution was performed with lysis buffer without DTT for 10 min at room temperature. Sample loading, transfer and immuno-blotting were performed as described above. […]

MOSPD2 [3] = molecular target: T1, MOSPD2; experiment: Binding to HEK293 cells transfected with HA-tagged human MOSPD2; set-up: expressed in transfected cells; host or cells: HEK293; settings: ovalbumin labeled compound
Text: VB-201 inhibits human monocyte chemotaxis in vitro and signaling pathways activated downstream of chemokine receptors.

human monocytes = settings: cited from earlier work
TLR2 = molecular target: T2, TLR2 (Homo sapiens, UniProt O60603); experiment: Precipitation of proteins from human CD14 monocyte lysate with labelled VB-201 or VB-221, Western blot; format: binding; settings: ovalbumin-biotin labelled compound (OB201/OB221)
T2 construct: endogenous in cells; host or cells: human CD14 monocytes
T2 sequence (O60603 21-784): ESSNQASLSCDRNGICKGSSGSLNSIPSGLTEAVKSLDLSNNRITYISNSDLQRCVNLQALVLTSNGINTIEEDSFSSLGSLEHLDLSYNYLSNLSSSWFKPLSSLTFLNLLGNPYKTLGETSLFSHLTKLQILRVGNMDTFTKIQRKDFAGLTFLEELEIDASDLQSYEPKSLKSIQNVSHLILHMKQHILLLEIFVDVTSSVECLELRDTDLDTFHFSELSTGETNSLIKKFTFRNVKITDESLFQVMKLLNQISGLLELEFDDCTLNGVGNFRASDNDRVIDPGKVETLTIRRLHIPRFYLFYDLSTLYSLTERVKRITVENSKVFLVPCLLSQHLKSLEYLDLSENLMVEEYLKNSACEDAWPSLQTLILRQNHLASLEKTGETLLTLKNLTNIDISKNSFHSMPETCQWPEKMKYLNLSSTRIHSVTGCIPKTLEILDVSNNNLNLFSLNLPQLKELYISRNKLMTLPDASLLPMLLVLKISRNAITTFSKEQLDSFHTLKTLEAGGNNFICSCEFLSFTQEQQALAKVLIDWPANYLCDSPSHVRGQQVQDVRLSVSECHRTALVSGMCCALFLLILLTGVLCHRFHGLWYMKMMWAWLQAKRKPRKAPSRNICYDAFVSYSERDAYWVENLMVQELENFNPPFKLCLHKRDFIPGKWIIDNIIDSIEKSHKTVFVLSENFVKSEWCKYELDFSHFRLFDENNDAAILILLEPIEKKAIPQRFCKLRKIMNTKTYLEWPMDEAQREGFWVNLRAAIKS
Protocol: as §1, §2

[4] = test system: EGF induced phosphorylation of AKT; experiment: EGF-induced phosphorylation of AKT in MDA-231 cells, Western blot; format: cell-based, human; settings: 20 min pre-incubation, EGF 200 ng/ml 10 min
Protocol: In vitro: To test the effect of VB-201 on epidermal growth factor (EGF)-induced phosphorylation, MDA-231 breast cancer cells (10^6) were starved for 3 hours in 0.5% FCS medium, followed by incubation with various concentrations of VB-201 (1 μg/ml, 5 μg/ml, and 10 μg/ml) or a solvent control for 20 minutes. The MDA-231 cells were then activated with EGF (200 ng/ml) for 10 min. Phosphorylation of AKT was then analyzed by Western Blot. HSP90 was used for a loading control.

Row | Structure (SMILES) | binding of MOSPD2 by Mass-Spectrometry (MOSPD2 [1]) | binding / precipitation of MOSPD2 (MOSPD2 [2]) | binding to HA-positive HEK293 cells expressing human MOSPD2 (MOSPD2 [3]) | inhibition of monocyte chemotaxis / chemokine-induced signaling and migration (human monocytes) | precipitation of TLR2 (TLR2) | inhibition of EGF induced phosphorylation of AKT ([4]; 5 μg/ml) | inhibition of EGF induced phosphorylation of AKT ([4]; 10 μg/ml)
1 | CCCCCCCCCCCCCCCCOC[C@H](COP(=O)([O-])OCC[N+](C)(C)C)OCCCCC(=O)O [VB-201, 1-hexadecyl-2-(4′-carboxy)butyl-glycero-3-phosphocholine] | strong binding | binds and precipitates MOSPD2; also recorded: markedly more intense than VB-221; also recorded: binds to MOSPD2 | strong binding | inhibits migration | comparable intensity | significant inhibition | nearly completely inhibits
2 | CCCCCCCCCCC(CCCCCCCC)COCC(COP(=O)([O-])OCC[N+](C)(C)C)OCCCCC(=O)O (stereo not drawn) [VB-221, 1-(2′-octyl)dodecyl-2-(4′-carboxy)butyl-glycero-3-phosphocholine] |  |  |  | does not inhibit; also recorded: did not inhibit | comparable intensity |  | 
